# Measurements from patent US20080255236A1, “Methods and Composition Comprising 2-[(3-Chlorophenyl)Amino] Phenylacetic Acid for Alzheimer's Disease” (Glycadia, Inc., priority 2007, published 2008).
# Where two headings read alike, the source gives them in different places.
# Tests used:
# [1] = cited from earlier work
# [2] = test system: human hepatocytes; assay: Metabolic conversion after incubation with human hepatocytes (mass spectrometry); assay type: in vitro ADME
# Method: After incubation of 23CPPA with human hepatocytes, samples were analyzed using mass spectrometry to establish metabolic conversion of the compound.
# [3] = Brain and plasma levels of 23CPPA following oral administration in rats (HPLC/MS/MS); assay type: in vivo; settings: rat; for concentration at 1 h: 1 hour after dose; for concentration at 4 h: 4 hours after dose; for concentration at 6 h: 6 hours after dose
# Method: Rat hemi brains were obtained 1, 4 and 6 hours after administration by gavage of the sodium salt of 23CPPA at doses of 15 and 60 mg/kg and were mixed with two equivalents of water and homogenized. The resulting homogenate was extracted into acetonitrile containing internal standard and concentrations of the compound were analyzed by high pressure liquid chromatography/two stage mass spectrometry (HPLC/MS/MS). Plasma samples also were collected from the same rats at these time points for measurement of plasma concentrations of the compound.
# [4] = molecular target: T1, COX2 (Homo sapiens, UniProt P35354); settings: background statement, no test described; cited from earlier work
# T1 sequence (P35354 18-604): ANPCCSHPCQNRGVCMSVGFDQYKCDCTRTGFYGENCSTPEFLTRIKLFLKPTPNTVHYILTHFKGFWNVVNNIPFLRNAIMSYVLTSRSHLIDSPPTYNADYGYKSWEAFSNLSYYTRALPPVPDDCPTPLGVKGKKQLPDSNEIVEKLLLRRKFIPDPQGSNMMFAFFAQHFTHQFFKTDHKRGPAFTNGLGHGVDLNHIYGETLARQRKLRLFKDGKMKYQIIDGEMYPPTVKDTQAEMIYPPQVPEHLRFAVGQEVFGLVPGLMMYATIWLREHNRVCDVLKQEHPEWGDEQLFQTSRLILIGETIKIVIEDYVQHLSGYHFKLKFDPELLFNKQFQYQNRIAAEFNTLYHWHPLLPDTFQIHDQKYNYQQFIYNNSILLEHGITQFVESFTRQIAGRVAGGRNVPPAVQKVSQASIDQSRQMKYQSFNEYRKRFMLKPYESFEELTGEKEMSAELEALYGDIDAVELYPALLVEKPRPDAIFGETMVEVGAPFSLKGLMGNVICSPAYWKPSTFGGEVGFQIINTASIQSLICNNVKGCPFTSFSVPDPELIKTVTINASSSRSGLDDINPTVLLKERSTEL
# [5] = test system: Mammalian cell cultures expressing human Amyloid Protein Precursor (APP); assay: Production of Aβ40 and Aβ42 peptides in culture supernatants, enzyme-linked immunoassay; assay type: cell-based; settings: sodium salt at 10, 50 and 100 micromolar, vs DMSO control
# Method: FIG. 1 is a chart diagram representing an exemplary embodiment of 23CPPA lowering production of amyloidogenic Aβ42 peptide. Mammalian cell cultures expressing human Amyloid Protein Precursor (APP) were treated with the sodium salt of 23CPPA at concentrations of 10, 50 and 100 micromolar. The culture supernatants were analyzed by enzyme-linked immunoassay for the Aβ40 and Aβ42 peptides. Results were compared to control values obtained from cells treated with DMSO. […] Mammalian cell cultures expressing human Amyloid Protein Precursor (APP) were treated with the sodium salt of 23CPPA at concentrations of 10, 50 and 100 micromolar. The culture supernatants were analyzed by enzyme-linked immunoassay for the Aβ40 and Aβ42 peptides. Results were compared to control values obtained from cells treated with DMSO.
# [6] = Bioavailability of 23CPPA in male rats (oral vs intravenous); assay type: in vivo; settings: rat, single dose oral 30 mg/kg vs intravenous 3.0 mg/kg, plasma LC-MS-MS
# Method: Male rats were given a single dose of 23CPPA by the oral route (30 mg/kg) or by the intravenous route (3.0 mg/kg). Timed samples of blood were collected before and after dosing, and plasma concentrations of the compound were determined with LC-MS-MS analysis.
# [7] = test system: diabetic rodents; settings: chronic administration, cited from earlier work
# [8] = Plasma levels of 23CPPA after oral administration to humans; assay type: in vivo, human; settings: for AUC(0-t): read-out: AUC0-24
# Method: Plasma concentrations were measured at timed intervals after oral administration of a single dose of 50 to 1000 mg of the sodium salt of 23CPPA. […] The extent of systemic exposure of subjects to 23CPPA, characterized by the area under the curve from 0 to 24 hours after administration (AUC0-24), increased with increasing dosage from 50 to 1000 mg and was approximately dose proportional. The human pharmacokinetic findings closely resemble those in rats according to the human equivalent dose as shown in Example 2.
# [9] = molecular target: COX1 (Homo sapiens, UniProt P23219); settings: background statement, no test described; cited from earlier work
# Chain of COX1 (P23219 24-599): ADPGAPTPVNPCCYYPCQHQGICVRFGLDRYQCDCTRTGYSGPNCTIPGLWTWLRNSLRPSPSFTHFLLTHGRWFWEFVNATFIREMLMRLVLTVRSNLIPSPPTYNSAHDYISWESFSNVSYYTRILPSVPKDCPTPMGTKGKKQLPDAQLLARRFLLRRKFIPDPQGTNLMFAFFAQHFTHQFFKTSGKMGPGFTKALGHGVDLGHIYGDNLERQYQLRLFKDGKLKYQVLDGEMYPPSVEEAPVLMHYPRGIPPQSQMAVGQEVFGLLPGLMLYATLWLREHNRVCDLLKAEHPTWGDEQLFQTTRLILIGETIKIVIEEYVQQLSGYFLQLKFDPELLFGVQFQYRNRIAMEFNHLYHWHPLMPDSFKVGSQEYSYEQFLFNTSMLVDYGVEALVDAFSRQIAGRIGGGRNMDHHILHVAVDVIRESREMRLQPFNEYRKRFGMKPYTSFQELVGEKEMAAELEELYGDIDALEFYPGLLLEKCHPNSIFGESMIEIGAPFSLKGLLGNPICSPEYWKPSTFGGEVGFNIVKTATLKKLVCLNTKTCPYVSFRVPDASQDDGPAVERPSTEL
# [10] = Plasma levels of 23CPPA following oral administration in rats; assay type: in vivo, rat; settings: for AUC(0-t) / half-life: plasma, rat; for AUC(0-t) / Cmax / half-life: po; for AUC(0-t): read-out: AUC0-24; for Cmax: read-out: maximal concentration (Cmax)
# Method: Concentrations of compound in rat plasma were measured at timed intervals after administration by gavage of 25 and 75 mg per kilogram of body weight of the sodium salt of 23CPPA. […] Plasma concentrations of the compound readily declined after reaching maximal concentration and the elimination half-life (T^1/2) was about 2 hours. The extent of systemic exposure of animals to 23CPPA, characterized by the area under the curve from 0 to 24 hours after administration (AUC0-24), increased with increasing dosage, was approximately dose proportional, and encompassed levels representing therapeutic ranges.
# [11] = blood, gavage 15 mg/kg sodium salt, read-out: Blood concentration
# [12] = blood, gavage 60 mg/kg sodium salt, read-out: Blood concentration
# [13] = brain, gavage 15 mg/kg sodium salt, read-out: Brain concentration
# [14] = brain, gavage 60 mg/kg sodium salt, read-out: Brain concentration
smiles,measurement,setting,value
C[C@@H](C(=O)O)c1ccc(-c2ccccc2)c(F)c1 [R-flurbiprofen],fraction converted in vivo to S-flurbiprofen,[1],22-30%
"O=C(O)Cc1ccccc1Nc1cccc(Cl)c1 [23CPPA, 2-[(3-chlorophenyl)amino]phenylacetic acid]",conversion products identified,"[2]; incubation with human hepatocytes, mass spectrometry",hydroxylation and loss of water products and glucuronide conjugates
same,conversion to COX-inhibitory compound,[2]; structures of conversion products from human hepatocytes,none of which had structures compatible with COX-inhibitory activity
same,concentration at 1 h,[3]; [11],27 µM
same,concentration at 4 h,[3]; [11],4 µM
same,concentration at 6 h,[3]; [11],3 µM
same,concentration at 1 h,[3]; [12],57 µM
same,concentration at 4 h,[3]; [12],28 µM
same,concentration at 6 h,[3]; [12],22 µM
same,concentration at 1 h,[3]; [13],76 µM
same,concentration at 4 h,[3]; [13],12.4 µM
same,concentration at 6 h,[3]; [13],11.9 µM
same,concentration at 1 h,[3]; [14],148 µM
same,concentration at 4 h,[3]; [14],61 µM
same,concentration at 6 h,[3]; [14],45 µM
same,inhibition of cyclooxygenase enzyme COX2,[4],is not a pharmacologic inhibitor
same,amount of Aβ40,[5],without proportionate change
same,amount of Aβ42,[5],dose-dependent reduction
same,total Aβ values,[5],without proportionate change
same,bioavailability,[6],85%
same,concentration of glycated albumin,[7]; persistent hyperglycemia,lowers the concentration of glycated albumin
same,structural and functional abnormalities characteristic of diabetic kidney disease,[7],ameliorates the structural and functional abnormalities
same,Cmax,"[8]; human plasma, single oral dose of 50 to 1000 mg sodium salt, read-out: maximal concentrations (Cmax)",200 to 15600 ng/mL
same,Tmax,"[8]; plasma, human, all dosage groups, single oral dose 50 to 1000 mg sodium salt, read-out: mean time of maximal concentration (Tmax)",1.74 h
same,AUC(0-t),"[8]; plasma, human, single oral dose 50 mg (0.7 mg/kg body wt)",4480 ng·h/mL
same,half-life,"[8]; plasma, human, single oral dose 50 mg (0.7 mg/kg body wt), read-out: T1/2 (converted)",1.55 h
same,AUC(0-t),"[8]; plasma, human, single oral dose 100 mg (1.3 mg/kg body wt)",11000 ng·h/mL
same,half-life,"[8]; plasma, human, single oral dose 100 mg (1.3 mg/kg body wt), read-out: T1/2 (converted)",1.5 h
same,AUC(0-t),"[8]; plasma, human, single oral dose 250 mg (3.0 mg/kg body wt)",27300 ng·h/mL
same,half-life,"[8]; plasma, human, single oral dose 250 mg (3.0 mg/kg body wt), read-out: T1/2 (converted)",1.35 h
same,AUC(0-t),"[8]; plasma, human, single oral dose 500 mg (6.0 mg/kg body wt)",54000 ng·h/mL
same,half-life,"[8]; plasma, human, single oral dose 500 mg (6.0 mg/kg body wt), read-out: T1/2 (converted)",1.5 h
same,AUC(0-t),"[8]; plasma, human, single oral dose 750 mg (9.0 mg/kg body wt)",66600 ng·h/mL
same,half-life,"[8]; plasma, human, single oral dose 750 mg (9.0 mg/kg body wt), read-out: T1/2 (converted)",2.33 h
same,AUC(0-t),"[8]; plasma, human, single oral dose 1000 mg (12.3 mg/kg body wt)",100000 ng·h/mL
same,half-life,"[8]; plasma, human, single oral dose 1000 mg (12.3 mg/kg body wt), read-out: T1/2 (converted)",2.38 h
same,half-life,"[8]; plasma, human, single oral dose 50 to 1000 mg sodium salt, read-out: mean elimination half-life (T1/2) (converted)",1.77 h
same,inhibition of cyclooxygenase enzyme COX1,[9],is not a pharmacologic inhibitor
same,AUC(0-t),[10]; gavage 25 mg/kg body wt. sodium salt,26600 ng·h/mL
same,AUC(0-t),[10]; gavage 75 mg/kg body wt. sodium salt,94000 ng·h/mL
same,Cmax,"[10]; rat plasma, gavage 25 mg/kg sodium salt",9500 ng/mL
same,Cmax,"[10]; rat plasma, gavage 75 mg/kg sodium salt",25000 ng/mL
same,Time of maximal concentration (Tmax),"[10]; rat plasma, gavage 25 and 75 mg/kg sodium salt",within one hour
same,half-life,"[10]; 25 mg/kg, gavage 25 mg/kg body wt. sodium salt, read-out: T1/2 (converted)",2.45 h
same,half-life,"[10]; 75 mg/kg, rat plasma, gavage 25 and 75 mg/kg sodium salt, read-out: elimination half-life (T1/2) (converted)",~2 h
same,half-life,"[10]; 75 mg/kg, gavage 75 mg/kg body wt. sodium salt, read-out: T1/2 (converted)",1.95 h
